# Test results reported in patent US20240156744A1, “METHOD OF APPLYING ELECTRICAL IMPULSES FOR THE PURPOSE OF LOADING VARIOUS MOLECULES INTO PLANT-DERIVED NANOVESICLES” (EXO LAB ITALIA, S.r.l., priority 2021, published 2024).
# How the values were obtained:
# [1] = system: drug-resistant CEM/VBL100 cells; test: Cytotoxicity by Trypan blue assay on CEM/VBL100 cells; assay type: cell-based; details: CEM/VBL100, 24 h
# Experimental: Increasing concentrations of VBL alone and loaded into the plant nanovesicles were used to assess the cytotoxic effect on CEM and CEM/VBL100 leukaemic cells by Trypan blue assay after 48 and 24 h of incubation, respectively. A) The cytotoxic effect on CEM cells starts to be evident at a concentration of 1000 ng/mL and is enhanced in VBL loaded in the plant nanovesicles (2.6-fold higher than in VBL alone).
# human melanoma cells = test: Transfer of AO to tumour cells, spectrofluorimeter; assay type: cell-based; details: AO 0.1 pg/mL; cells cultured in unbuffered medium
# From the text: Acridine orange was not activated with blue light.
SMILES,mortality at 0.0001 µg/mL [1],percentage of AO transferred to tumour cells (human melanoma cells)
"CC[C@]1(O)C[C@@H]2CN(CCc3c([nH]c4ccccc34)[C@@](C(=O)OC)(c3cc4c(cc3OC)N(C)[C@H]3[C@@](O)(C(=O)OC)[C@H](OC(C)=O)[C@]5(CC)C=CCN6CC[C@]43[C@@H]65)C2)C1 [VBL, vinblastine]",0.7%,
"CN(C)c1ccc2cc3ccc(N(C)C)cc3nc2c1 [AO, Acridine Orange]",,significantly reduced
